Test results reported in patent US9328099B2, “Cyanomethylpyrazole carboxamides as janus kinase inhibitors” (Merck Sharp & Dohme Corp., priority 2011, dated 2016).

Experiments:
JAK1 = JAK1 (Homo sapiens (Human), UniProt P23458); assay: Jak Biochemical HTRF Assay, JAK1; settings: HTRF biochemical assay, GST-tagged catalytic domain; top concentration tested […]; read-out: JAK1 IC50
Description: (§1) Jak Biochemical HTRF Assay Protocol
(§2) Subsequent reagent additions employed an Agilent Bravo.

JAK2 = JAK2 (Homo sapiens (Human), UniProt O60674); assay: Jak Biochemical HTRF Assay, JAK2; settings: HTRF biochemical assay, GST-tagged catalytic domain; top concentration tested […]
Sequence of JAK2 (O60674 849-1124): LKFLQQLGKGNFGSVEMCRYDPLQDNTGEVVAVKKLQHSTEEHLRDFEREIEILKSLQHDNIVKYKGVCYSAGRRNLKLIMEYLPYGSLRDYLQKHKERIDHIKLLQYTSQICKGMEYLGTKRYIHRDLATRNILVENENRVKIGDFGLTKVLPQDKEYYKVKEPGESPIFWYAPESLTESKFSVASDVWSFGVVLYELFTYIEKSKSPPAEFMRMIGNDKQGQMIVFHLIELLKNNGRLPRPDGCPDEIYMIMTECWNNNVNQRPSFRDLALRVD
Description: as §1, §2

Sequence of JAK1 (P23458 875-1153): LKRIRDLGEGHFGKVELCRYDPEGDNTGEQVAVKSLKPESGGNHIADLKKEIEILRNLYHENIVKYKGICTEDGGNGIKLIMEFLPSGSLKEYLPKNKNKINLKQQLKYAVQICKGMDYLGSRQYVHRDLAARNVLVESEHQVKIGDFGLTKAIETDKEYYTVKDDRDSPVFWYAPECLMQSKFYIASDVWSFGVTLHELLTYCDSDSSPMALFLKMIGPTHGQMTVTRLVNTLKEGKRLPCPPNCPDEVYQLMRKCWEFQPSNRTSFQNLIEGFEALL

Compound	IC50 (JAK1) [µM]	IC50 (JAK2) [µM]
COc1cccc(COC(=O)N2CC(CC#N)(n3cc(C(N)=O)c(Nc4ccccc4)n3)C2)c1 [Example 30-70, 3-methoxybenzyl 3-[4-carbarnoyl-3-(phenylamino)-1H-pyrazol-1-yl]-3-(cyanomethyl)azetidine-1-carboxylate]	0.021	0.423
N#CCC1(n2cc(C(N)=O)c(Nc3ccccc3)n2)CCCCC1 [Example 2-15, 1-[1-(cyanomethyl)cyclohexyl]-3-(phenylamino)-1H-pyrazole-4-carboxamide]	0.01	0.092
CCCCC(=O)N1CCC(CC#N)(n2cc(C(N)=O)c(Nc3ccccc3)n2)CC1 [Example 34-4, 1-[4-(cyanomethyl)-1-pentanoylpiperidin-4-yl]-3-(phenylamino)-1H-pyrazole-4-carboxamide]	0.012	0.07
CC(C)(C)OC(=O)N1CCC(CC#N)(n2cc(C(N)=O)c(Nc3cccc(-c4ccc(O)cc4)c3)n2)CC1 [Example 15-5, tert-butyl 4-{4-carbamoyl-3-[(4′-hydroxybiphenyl-3-yl)amino]-1H-pyrazol-1-yl}-4-(cyanomethyl)piperidine-1-carboxylate]	0.014	0.293
N#CCC1(n2cc(C(N)=O)c(Nc3ccccc3)n2)CCN(C(=O)Cc2ccc(C(F)(F)F)cc2)CC1 [Example 34-30, 1-[4-(cyanomethyl)-1-{[4-(trifluoromethyl)phenyl]acetyl}piperidin-4-yl]-3-(phenylamino)-1H-pyrazole-4-carboxamide]	0.035	0.363
C[C@@H](OC(=O)N1CCC(CC#N)(n2cc(C(N)=O)c(Nc3ccc(F)cc3)n2)CC1)C(F)(F)F [Example 30-14, (R)-1,1,1-trifluoropropan-2-yl 4-(4-carbamoyl-3-(4-fluorophenylamino)-1H-pyrazol-1-yl)-4-(cyanomethyl)piperidine-1-carboxylate]	0.002	0.03
CC(C)(C)C(=O)N1CC(CC#N)(n2cc(C(N)=O)c(Nc3ccccc3)n2)C1 [Example 34-37, 1-[3-(cyanomethyl)-1-(2,2-dimethylpropanoyl)azetidin-3-yl]-3-(phenylamino)-1H-pyrazole-4-carboxamide]	0.138	0.57
N#CCC1(n2cc(C(N)=O)c(Nc3ccc(F)cc3)n2)CCN(c2cccc(OCCO)n2)CC1 [Example 3-10, 1-{4-(cyanomethyl)-1-[6-(2-hydroxyethoxy)pyridin-2-yl]piperidin-4-yl}-3-[(4-fluorophenyl)amino]-1H-pyrazole-4-carboxamide]	0.003	0.047
Cn1cc(C(=O)N2CCC(CC#N)(n3cc(C(N)=O)c(Nc4ccnc(F)c4)n3)CC2)cn1 [Example 34-44, 1-{4-(cyanomethyl)-1-[(1-methyl-1H-pyrazol-4-yl)carbonyl]piperidin-4-yl}-3-[(2-fluoropyridin-4-yl)amino]-1H-pyrazole-4-carboxamide]	0.002	0.063
N#CCC1(n2cc(C(N)=O)c(Nc3ccccc3)n2)CCN(Cc2ccc(C#N)cc2)CC1 [Example 21-4, 1-[1-(4-cyanobenzyl)-4-(cyanomethyl)piperidin-4-yl]-3-(phenylamino)-1H-pyrazole-4-carboxamide]	0.029	0.243
COc1ccc(CC(=O)N2CCC(CC#N)(n3cc(C(N)=O)c(Nc4ccccc4)n3)CC2)cc1 [Example 34-24, 1-{4-(cyanomethyl)-1-[(4-methoxyphenyl)acetyl]piperidin-4-yl}-3-(phenylamino)-1H-pyrazole-4-carboxamide]	0.007	0.084
N#CCC1(n2cc(C(N)=O)c(Nc3ccc(F)cc3)n2)CCN(C(=O)OC(CF)CF)CC1 [Example 30-9, 1,3-difluoropropan-2-yl 4-(4-carbamoyl-3-(4-fluorophenylamino)-1H-pyrazol-1-yl)-4-(cyanomethyl)piperidine-1-carboxylate]	0.0003	0.005
COc1ccc(S(=O)(=O)N2CCC(CC#N)(n3cc(C(N)=O)c(Nc4ccccc4)n3)CC2)cc1 [Example 37-9, 1-{4-(cyanomethyl)-1-[(4-methoxyphenyl)sulfonyl]piperidin-4-yl}-3-(phenylamino)-1H-pyrazole-4-carboxamide]	0.0008	0.003
N#CCC1(n2cc(C(N)=O)c(Nc3ccccc3)n2)CN(C(=O)OCCCc2cccnc2)C1 [Example 30-68, 3-pyridin-3-ylpropyl 3-[4-carbamoyl-3-(phenylamino)-1H-pyrazol-1-yl]-3-(cyanomethyl)azetidine-1-carboxylate]	0.045	0.445
CC(C)(C)OC(=O)N1CCC(CC#N)(n2cc(C(N)=O)c(Nc3cccc(-c4ccccc4F)c3)n2)CC1 [Example 15-10, tert-butyl 4-{4-carbamoyl-3-[(2′-fluorobiphenyl-3-yl)amino]-1H-pyrazol-1-yl}-4-(cyanomethyl)piperidine-1-carboxylate]	0.031	0.841

The next lines start with the values.

IC50 (JAK1) [µM]	IC50 (JAK2) [µM]	Compound
0.008	0.114	Cc1ccc(NC(=O)N2CC(CC#N)(n3cc(C(N)=O)c(Nc4ccccc4)n3)C2)cc1F [Example 38-37, 1-{3-(cyanomethyl)-1-[(3-fluoro-4-methylphenyl)carbamoyl]azetidin-3-yl}-3-(phenylamino)-1H-pyrazole-4-carboxamide]
0.026	0.444	N#CCC1(n2cc(C(N)=O)c(Nc3ccnc(F)c3)n2)CCC(N2CC(F)C2)CC1 (stereo not drawn) [Example 40-82, Cis or trans 1-[1-(cyanomethyl)-4-(3-fluoroazetidin-1-yl)cyclohexyl]-3-[(2-fluoropyridin-4-yl)amino]-1H-pyrazole-4-carboxamide]
0.002	0.069	CCOc1ccc(NC(=O)N2CC(CC#N)(n3cc(C(N)=O)c(Nc4ccccc4)n3)C2)cc1 [Example 38-26, 1-{3-(cyanomethyl)-1-[(4-ethoxyphenyl)carbamoyl]azetidin-3-yl}-3-(phenylamino)-1H-pyrazole-4-carboxamide]
0.012	0.468	N#CCC1(n2cc(C(N)=O)c(Nc3ccnc(F)c3)n2)CCC(NCc2ccccc2O)CC1 (stereo not drawn) [Example 41-7, Cis or trans 1-{1-(cyanomethyl)-4-[(2-hydroxybenzyl)amino]cyclohexyl}-3-[(2-fluoropyridin-4-yl)amino]-1H-pyrazole-4-carboxamide]
0.027	1.08	N#CCC1(n2cc(C(N)=O)c(Nc3ccnc(F)c3)n2)CCC(NCc2ccc(F)cc2)CC1 (stereo not drawn) [Example 41-25, Cis or trans 1-{1-(cyanomethyl)-4-[(4-fluorobenzyl)amino]cyclohexyl}-3-[(2-fluoropyridin-4-yl)amino]-1H-pyrazole-4-carboxamide]
0.0001	0.003	N#CCC1(n2cc(C(N)=O)c(Nc3ccc(F)cc3)n2)CCC(Nc2ccccc2)CC1 (stereo not drawn) [Example 40-103, Cis or trans 1-[1-(cyanomethyl)-4-(phenylamino)cyclohexyl]-3-[(4-fluorophenyl)amino]-1H-pyrazole-4-carboxamide]
0.016	0.506	N#CCC1(n2cc(C(N)=O)c(Nc3ccnc(F)c3)n2)CCC(Nc2ccc(F)cc2F)CC1 (stereo not drawn) [Example 40-37, Cis or trans 1-{1-(cyanomethyl)-4-[(2,4-difluorophenyl)amino]cyclohexyl}-3-[(2-fluoropyridin-4-yl)amino]-1H-pyrazole-4-carboxamide]
